Experimental data: ChEMBL document CHEMBL1201862, “PubChem BioAssay data set” (2004)
Structures can show the parent of a compound that is named as a salt. The source made the active and inactive calls.

Legend:
[1] = target: T1, Corticotropin-releasing factor receptor 2/Corticotropin-releasing factor-binding protein (Homo sapiens, UniProt P24387+Q13324); experiment: Dose Response confirmation of uHTS hits for small molecule antagonists of the CRF-binding protein and CRF-R2 receptor complex.; format: functional; conditions: read-out: IC50_Mean
T1 sequence (Q13324 whole entry): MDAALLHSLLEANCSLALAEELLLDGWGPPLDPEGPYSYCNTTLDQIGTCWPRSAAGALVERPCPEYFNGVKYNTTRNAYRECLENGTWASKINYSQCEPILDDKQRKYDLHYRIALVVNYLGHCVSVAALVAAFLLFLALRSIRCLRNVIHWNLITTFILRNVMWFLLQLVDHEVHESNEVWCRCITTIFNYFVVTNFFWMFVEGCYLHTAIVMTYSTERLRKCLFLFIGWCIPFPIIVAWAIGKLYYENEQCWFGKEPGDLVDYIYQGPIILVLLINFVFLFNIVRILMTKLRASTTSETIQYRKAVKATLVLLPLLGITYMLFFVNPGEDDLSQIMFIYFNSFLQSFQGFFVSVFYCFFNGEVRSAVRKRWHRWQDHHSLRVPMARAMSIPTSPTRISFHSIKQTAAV
T1 sequence (P24387 whole entry): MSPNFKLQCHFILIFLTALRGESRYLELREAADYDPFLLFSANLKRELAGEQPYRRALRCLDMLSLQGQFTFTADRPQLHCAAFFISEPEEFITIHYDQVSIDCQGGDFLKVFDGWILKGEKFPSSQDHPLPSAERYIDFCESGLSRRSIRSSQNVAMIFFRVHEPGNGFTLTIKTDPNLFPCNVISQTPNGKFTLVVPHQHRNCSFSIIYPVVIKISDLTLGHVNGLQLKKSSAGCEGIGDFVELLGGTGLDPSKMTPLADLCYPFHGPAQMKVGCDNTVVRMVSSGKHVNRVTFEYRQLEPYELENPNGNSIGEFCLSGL

[2] = target: T1, Corticotropin-releasing factor receptor 2/Corticotropin-releasing factor-binding protein; experiment: activators of CRF receptor 2 with binding protein – uHTS hits, confirmation (AID 602473); format: functional; conditions: read-out: EC50_Mean
[3] = blockers of CRF-binding protein–CRF-R2 complex – cell-based, uHTS hits, 384-well, dose response (AID 651639); format: functional, Homo sapiens; conditions: read-out: IC50_Mean
[4] = target: T2, fMet-Leu-Phe receptor (Homo sapiens, UniProt P21462); experiment: formyl peptide receptor binders – dose response (AID 519); format: functional
T2 sequence (P21462 whole entry): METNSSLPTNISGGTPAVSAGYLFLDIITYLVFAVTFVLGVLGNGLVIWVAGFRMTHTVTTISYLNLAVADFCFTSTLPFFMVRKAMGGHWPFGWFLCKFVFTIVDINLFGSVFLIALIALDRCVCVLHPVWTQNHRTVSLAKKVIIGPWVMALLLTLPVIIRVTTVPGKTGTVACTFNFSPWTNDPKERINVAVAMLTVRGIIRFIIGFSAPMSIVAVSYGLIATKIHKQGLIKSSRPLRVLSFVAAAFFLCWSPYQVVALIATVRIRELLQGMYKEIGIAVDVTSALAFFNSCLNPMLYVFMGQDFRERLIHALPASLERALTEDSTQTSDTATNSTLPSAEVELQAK

[5] = target: Cytochrome P450 2D6 (Homo sapiens, UniProt P10635);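 also: CYP2D6 member of a cytochrome P450 panel assay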
[6] = target: Beta-galactosidase (Escherichia coli, UniProt Q8VNN2); experiment: Dose response counterscreen for EBI2 assay utilizing the enzyme, b-galactosidase.; format: functional
[7] = target: Albumin (Bos taurus, UniProt P02769); experiment: Counterscreen for inhibitors of T-cell receptor (TCR)-CD3 interaction: Fluorescence-based biochemical high throughput dose response assay to identify inhibitors of T-cell receptor (TCR)-CD3 interaction using a TAMRA-labeled BSA probe.; format: functional
[8] = cells; format: functional, cell-based
[9] = target: T3, Trace amine-associated receptor 1 (Homo sapiens, UniProt Q96RJ0); experiment: Fluorescence-based cell-based high throughput dose response assay to identify agonists of the human trace amine associated receptor 1 (TAAR1).; format: functional
T3 sequence (Q96RJ0 whole entry): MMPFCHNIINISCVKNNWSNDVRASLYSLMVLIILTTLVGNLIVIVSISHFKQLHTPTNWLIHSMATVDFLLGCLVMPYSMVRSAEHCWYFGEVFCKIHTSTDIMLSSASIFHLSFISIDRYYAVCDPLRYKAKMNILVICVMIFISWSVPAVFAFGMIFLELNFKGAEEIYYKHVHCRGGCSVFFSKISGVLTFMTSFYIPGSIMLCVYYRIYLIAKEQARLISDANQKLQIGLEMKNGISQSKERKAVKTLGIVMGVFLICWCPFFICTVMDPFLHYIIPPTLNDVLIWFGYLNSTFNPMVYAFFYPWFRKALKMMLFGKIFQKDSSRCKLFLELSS

[10] = target: T3, Trace amine-associated receptor 1; experiment: Counterscreen for agonists of the human trace amine associated receptor 1 (hTAAR1): Fluorescence-based cell-based high throughput dose response assay to identify hTAAR1 agonist that also desensitize TAAR1 receptor response.; format: functional
[11] = cells; format: functional, cell-based; remark: listed apart in the source
[12] = target: T4, Methionyl-tRNA synthetase, putative (Trypanosoma brucei brucei, UniProt Q38C91); format: functional, Trypanosoma brucei brucei strain 927/4 GUTat10.1;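 also: Read-out by fluorescence polarization, run as a confirmatory high-throughput counterscreen; potency of MetRS inhibitors measured by reduced AMP formation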
T4 sequence (Q38C91 whole entry): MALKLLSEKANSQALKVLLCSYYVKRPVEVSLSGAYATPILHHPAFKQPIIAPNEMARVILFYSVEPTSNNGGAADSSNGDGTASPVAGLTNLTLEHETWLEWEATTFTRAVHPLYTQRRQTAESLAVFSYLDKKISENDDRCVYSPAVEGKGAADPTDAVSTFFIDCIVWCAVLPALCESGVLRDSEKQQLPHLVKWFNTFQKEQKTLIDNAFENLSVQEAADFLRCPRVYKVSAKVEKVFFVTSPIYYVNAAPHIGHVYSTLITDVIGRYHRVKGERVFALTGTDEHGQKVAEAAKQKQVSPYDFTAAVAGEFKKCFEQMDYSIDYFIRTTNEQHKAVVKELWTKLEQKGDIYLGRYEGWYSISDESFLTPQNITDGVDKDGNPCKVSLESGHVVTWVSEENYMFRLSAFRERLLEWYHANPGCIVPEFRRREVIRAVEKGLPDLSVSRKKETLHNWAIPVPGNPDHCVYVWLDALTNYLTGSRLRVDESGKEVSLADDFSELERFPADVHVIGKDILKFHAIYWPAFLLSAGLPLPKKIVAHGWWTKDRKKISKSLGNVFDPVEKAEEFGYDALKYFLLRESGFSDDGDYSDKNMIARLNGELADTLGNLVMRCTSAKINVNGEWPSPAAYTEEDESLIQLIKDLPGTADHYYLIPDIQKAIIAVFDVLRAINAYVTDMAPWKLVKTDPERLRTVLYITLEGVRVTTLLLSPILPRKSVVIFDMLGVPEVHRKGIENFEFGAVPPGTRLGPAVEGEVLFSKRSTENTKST

[13] = Counterscreen for inhibitors of Trypanosoma brucei methionyl tRNA synthetase (MetRS): Luminescence-based cell-based high throughput dose response assay to identify compounds that are cytotoxic to Jurkat human T lymphocyte cells.; format: functional
[14] = system: H9c2; experiment: cells; format: functional, cell-based; conditions: Rattus norvegicus, H9c2, Myocardium;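 also: confirmatory concentration-response retest of ultra-high-throughput screening hits for modulation of myocardial damage; cell death induced by hydrogen peroxide oxidative stress; compound pretreatment for 60 min then peroxide exposure for 2 h; potency is for protecting the cells against peroxide damage rather than for killing them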
[15] = potency of ADAM10 substrate cleavage blockers – biochemical, QFRET, dose response (AID 743254);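 also: ADAM10 enzyme with the DM2 quenched FRET peptide as substrate; EDANS fluorescence gain as the protease cuts the substrate; inhibitor potency against ADAM10 proteolytic activity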
[16] = target: Disintegrin and metalloproteinase domain-containing protein 17 (Homo sapiens, UniProt P78536); experiment: inhibition of ADAM17 substrate cleavage – biochemical, quenched FRET substrate, counter-screen for ADAM10 exosite inhibitor project, dose response (AID 743253)
[17] = THP-1 cell cytotoxicity, dose response, cytotoxicity control for non-replicating M. tuberculosis project (AID 489025); format: functional
[18] = system: Streptococcus sp. 'group A'; experiment: Streptococcus pyogenes SK(-)GAS viability under kanamycin – luminescence, BacTiterGlo, confirmation, counter-screen for streptokinase expression inhibitor project, dose response (AID 1900); format: functional, organism-based
[19] = system: Streptococcus; experiment: GAS UMAA2166 growth inhibition – luminescence, BacTiterGlo, counter-screen for streptokinase expression inhibitor project, dose response (AID 1915); format: functional, organism-based;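 also: potency for reduction of bacterial viability or growth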
[20] = target: Nonstructural protein 1 (Influenza A virus, UniProt Q194T2); format: functional, Influenza A virus (A/California/07/2009(H1N1))
[21] = viability loss in THP-1 monocytes – THP-1 cells, cytotoxicity control for Vif-APOBEC3G degradation inhibitor project, dose response (AID 1117359); format: functional; conditions: THP-1
[22] = viability of uninfected HEp-2 cells – cell-based, HTS, cytotoxicity control for RSV inhibitor project, dose response (AID 2410); format: functional; conditions: human respiratory syncytial virus
[23] = viability of PTEN-deleted HCT116 cells – cell-based, HCT116 PTEN knockout, dose response (AID 1047); format: functional;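 also: HCT116 colon tumor cells with PTEN knocked out; cells exposed to compound for 60 hours before readout; potency for loss of cell viability measured by luminescence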
[24] = viability of HCT116 lacking mutant beta-catenin – cell-based, human colon tumor, dose response (AID 1045); format: functional;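 also: HCT116 colon tumor cells with beta catenin knocked out; cells exposed to compound for 60 hours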
[25] = system: HEK293; experiment: EBV LMP1 TES2 canonical NF-kB signalling blockers – cell-based, HEK293, luciferase, cherry-pick, dose response (AID 588343); format: functional; conditions: Homo sapiens

Chain of Albumin (P02769 whole entry): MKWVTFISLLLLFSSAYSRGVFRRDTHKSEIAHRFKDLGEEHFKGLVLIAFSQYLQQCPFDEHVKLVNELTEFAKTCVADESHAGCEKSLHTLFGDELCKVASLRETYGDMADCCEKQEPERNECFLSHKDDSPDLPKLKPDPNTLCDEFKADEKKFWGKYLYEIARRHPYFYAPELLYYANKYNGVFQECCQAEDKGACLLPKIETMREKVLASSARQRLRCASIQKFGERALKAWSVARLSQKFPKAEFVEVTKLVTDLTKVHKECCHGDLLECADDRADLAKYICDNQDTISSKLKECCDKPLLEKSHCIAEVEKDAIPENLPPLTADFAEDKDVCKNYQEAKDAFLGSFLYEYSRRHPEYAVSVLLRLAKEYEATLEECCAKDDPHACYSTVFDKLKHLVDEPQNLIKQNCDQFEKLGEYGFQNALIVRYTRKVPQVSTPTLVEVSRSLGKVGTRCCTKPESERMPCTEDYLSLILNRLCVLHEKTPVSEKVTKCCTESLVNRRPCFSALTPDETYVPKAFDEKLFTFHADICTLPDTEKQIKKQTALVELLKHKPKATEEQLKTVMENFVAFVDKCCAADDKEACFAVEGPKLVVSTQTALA
Chain of Disintegrin and metalloproteinase domain-containing protein 17 (P78536 whole entry, the tested form may be a part): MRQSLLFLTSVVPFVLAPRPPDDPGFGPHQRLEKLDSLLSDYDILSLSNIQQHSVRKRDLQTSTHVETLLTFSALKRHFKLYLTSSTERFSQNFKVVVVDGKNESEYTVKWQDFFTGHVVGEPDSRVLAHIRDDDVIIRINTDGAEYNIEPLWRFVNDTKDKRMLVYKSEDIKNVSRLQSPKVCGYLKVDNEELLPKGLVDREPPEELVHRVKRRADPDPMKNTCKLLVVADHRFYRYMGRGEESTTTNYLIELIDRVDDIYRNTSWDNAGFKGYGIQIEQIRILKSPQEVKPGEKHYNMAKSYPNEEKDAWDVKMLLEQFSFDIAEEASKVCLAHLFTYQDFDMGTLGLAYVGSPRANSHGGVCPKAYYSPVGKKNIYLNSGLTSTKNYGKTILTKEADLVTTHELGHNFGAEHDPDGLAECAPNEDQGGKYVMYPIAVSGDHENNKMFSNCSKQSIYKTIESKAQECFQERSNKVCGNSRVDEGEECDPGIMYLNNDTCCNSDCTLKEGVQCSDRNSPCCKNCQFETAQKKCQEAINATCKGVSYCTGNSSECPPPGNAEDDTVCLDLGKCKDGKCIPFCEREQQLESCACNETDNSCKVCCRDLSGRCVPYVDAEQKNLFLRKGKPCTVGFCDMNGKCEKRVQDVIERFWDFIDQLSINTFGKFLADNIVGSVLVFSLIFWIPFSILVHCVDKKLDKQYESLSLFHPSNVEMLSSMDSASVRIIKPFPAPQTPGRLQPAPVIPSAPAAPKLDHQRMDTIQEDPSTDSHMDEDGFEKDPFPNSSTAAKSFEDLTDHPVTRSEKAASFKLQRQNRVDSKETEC
Chain of Beta-galactosidase (Q8VNN2 whole entry): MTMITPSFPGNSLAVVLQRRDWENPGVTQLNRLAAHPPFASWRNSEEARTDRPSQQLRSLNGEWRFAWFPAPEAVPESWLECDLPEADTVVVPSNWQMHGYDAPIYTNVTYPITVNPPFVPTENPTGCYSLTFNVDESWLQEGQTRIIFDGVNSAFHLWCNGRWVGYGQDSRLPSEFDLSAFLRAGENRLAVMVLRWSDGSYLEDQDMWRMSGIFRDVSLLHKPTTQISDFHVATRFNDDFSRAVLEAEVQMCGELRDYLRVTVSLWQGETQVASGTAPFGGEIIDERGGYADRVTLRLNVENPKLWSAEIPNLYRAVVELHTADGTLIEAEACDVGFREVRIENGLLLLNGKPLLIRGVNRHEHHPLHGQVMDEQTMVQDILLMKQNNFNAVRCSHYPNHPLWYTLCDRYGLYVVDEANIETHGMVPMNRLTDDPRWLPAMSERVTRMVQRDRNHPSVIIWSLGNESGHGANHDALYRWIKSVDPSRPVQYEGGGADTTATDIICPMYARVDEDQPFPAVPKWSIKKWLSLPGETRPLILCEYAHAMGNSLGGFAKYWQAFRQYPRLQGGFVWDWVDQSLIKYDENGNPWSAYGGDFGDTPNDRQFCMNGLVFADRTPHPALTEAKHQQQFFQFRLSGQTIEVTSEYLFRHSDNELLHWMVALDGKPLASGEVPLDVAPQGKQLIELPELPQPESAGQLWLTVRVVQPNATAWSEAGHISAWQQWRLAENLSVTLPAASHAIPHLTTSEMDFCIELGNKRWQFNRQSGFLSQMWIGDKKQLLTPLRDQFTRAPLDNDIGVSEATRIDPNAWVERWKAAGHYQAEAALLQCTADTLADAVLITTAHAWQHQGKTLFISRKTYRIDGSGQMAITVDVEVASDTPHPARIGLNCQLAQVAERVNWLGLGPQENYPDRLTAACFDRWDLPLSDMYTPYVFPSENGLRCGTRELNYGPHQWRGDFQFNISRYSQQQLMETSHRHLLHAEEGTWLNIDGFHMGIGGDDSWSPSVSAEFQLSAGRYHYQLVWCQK
Chain of Nonstructural protein 1 (Q194T2 whole entry): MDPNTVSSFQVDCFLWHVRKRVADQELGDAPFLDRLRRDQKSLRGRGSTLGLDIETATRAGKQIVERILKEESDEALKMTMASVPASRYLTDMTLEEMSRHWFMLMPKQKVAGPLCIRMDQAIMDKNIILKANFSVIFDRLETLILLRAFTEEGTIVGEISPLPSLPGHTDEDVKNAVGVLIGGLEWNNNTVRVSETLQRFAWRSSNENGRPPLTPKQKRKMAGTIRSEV
Chain of Cytochrome P450 2D6 (P10635 whole entry): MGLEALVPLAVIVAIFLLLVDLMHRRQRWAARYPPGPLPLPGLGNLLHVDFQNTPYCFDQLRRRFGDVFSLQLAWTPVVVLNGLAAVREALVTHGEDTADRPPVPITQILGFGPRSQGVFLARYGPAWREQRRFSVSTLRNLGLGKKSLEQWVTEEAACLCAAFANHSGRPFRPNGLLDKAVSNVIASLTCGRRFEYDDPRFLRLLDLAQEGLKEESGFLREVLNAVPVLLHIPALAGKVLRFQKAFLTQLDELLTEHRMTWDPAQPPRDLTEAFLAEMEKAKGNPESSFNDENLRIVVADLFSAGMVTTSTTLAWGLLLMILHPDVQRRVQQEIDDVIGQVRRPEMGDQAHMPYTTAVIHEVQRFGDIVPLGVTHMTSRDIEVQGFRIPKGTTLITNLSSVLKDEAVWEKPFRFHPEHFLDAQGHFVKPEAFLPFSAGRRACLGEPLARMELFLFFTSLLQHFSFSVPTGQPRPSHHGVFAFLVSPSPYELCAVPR

## Cc1c(CC(Cl)(Cl)Cl)c2c(n1O)CC(C)(C)CC2=O
[1]
  IC50: 2.98 µM (active)
[2]
  EC50: 15.9 µM (active)
[3]
  IC50: > 20 µM (inactive)

## O=C(CC(c1ccccc1)c1ccccc1O)NCc1ccccc1Cl (configuration not stated)
[1]
  IC50: 2.7 µM (active)
[2]
  EC50: > 53 µM (inactive)
[3]
  IC50: > 20 µM (inactive)

## COc1ccc(-c2cc(C(F)(F)F)nc(NC3CCCC3)n2)cc1OC
[4]
  Ki: > 66.7 µM (inactive)
[5]
  AC50: 20 µM (inconclusive)

## O=C(Nc1ccc(Cl)cc1)N1CCC(c2ccccc2)C1 (configuration not stated)
[6]
  IC50: > 80 µM (inactive)

## CCc1ccccc1NC(=O)NNC(=O)c1ccc2ccccc2c1O
[7]
  IC50: > 94.1 µM (inactive)

## NCCc1nc(-c2ccccc2)cs1
[8]
  IC50: > 29.9 µM (inactive)
[9]
  EC50: 4.72 µM (active)
[10]
  IC50: > 29.9 µM (inactive)
[11]
  EC50: > 29.9 µM (inactive)

## COCCCN1C(=O)C(O)=C(C(=O)c2ccc3c(c2)CC(C)O3)C1c1cccnc1 (configuration not stated)
[4]
  Ki: > 66.7 µM (inactive)

## O=C(Nc1ccccc1)Nc1ccc(S(=O)(=O)N2CCCCC2)cc1
[12]
  IC50: 26.9 µM (inactive)
[13]
  IC50: 47.5 µM (inactive)

## O=C(Cn1nc(C(=O)O)c2ccccc2c1=O)c1c[nH]c2ccccc12
[14]
  IC50: > 79 µM (inactive)
[6]
  IC50: > 80 µM (inactive)

## CCOc1ccc(CCN2C(=S)N([C@@H](Cc3ccc(O)cc3)CN3CCC[C@@H]3CN3C(=S)NC[C@@H]3CC(C)C)C[C@@H]2Cc2ccccc2)cc1
[15]
  IC50: > 69.5 µM (inactive)
[16]
  IC50: > 69.5 µM (inactive)

## S=C1SCN(CCc2ccccc2)CN1CCc1ccccc1
[8]
  IC50: > 29.9 µM (inactive)
[9]
  EC50: 2.11 µM (active)
[10]
  IC50: 3.35 µM (active)
[11]
  EC50: > 29.9 µM (inactive)

## OC(c1ccccc1)(c1nc(-c2cccc(C(F)(F)F)c2)cs1)C(F)(F)F (configuration not stated)
[15]
  IC50: 11.2 µM (inactive)
[16]
  IC50: > 69.5 µM (inactive)

## CCc1nc2ccc(C(=O)Nc3cccc(OC)c3)cn2c1N(CC)Cc1cccc(Br)c1
[15]
  IC50: > 69.5 µM (inactive)
[16]
  IC50: > 69.5 µM (inactive)

## COc1ccc(C(=O)C=CNNC(=O)c2ccc(Cl)cc2)cc1
[17]
  CC50: 15.6 µM (active)
[7]
  IC50: > 94.1 µM (inactive)

## O=C(N/N=C/c1cc([N+](=O)[O-])ccc1O)c1cccc(N2CCCC2=O)c1
[18]
  EC50: 0.935 µM (active)
[19]
  EC50: 1.9 µM (active)
[20]
  IC50: 6.59 µM (active)
[7]
  IC50: > 94.1 µM (inactive)

## OC[C@@H]1CN(Cc2cccc(C(F)(F)F)c2)C[C@H](n2cnc3c(NC4CC4)ncnc32)O1
[6]
  IC50: > 80 µM (inactive)

## CN(C)c1ccc(/C=N/CC2COc3ccccc3O2)cc1 (configuration not stated)
[8]
  IC50: > 29.9 µM (inactive)
[9]
  EC50: 4.25 µM (active)
[10]
  IC50: 14.3 µM (inactive)
[11]
  EC50: > 29.9 µM (inactive)

## Nc1c(S(=O)(=O)c2ccccc2)c2nc3ccccc3nc2n1/N=C/c1ccco1
[6]
  IC50: > 80 µM (inactive)
[21]
  CC50: > 40 µM (active)

## CCOC(=O)C1=C(C)N(Cc2ccccc2)C(=O)NC1c1ccccc1OS(=O)(=O)c1ccccc1[N+](=O)[O-] (configuration not stated)
[22]
  CC50: 5.56 µM (active)
[15]
  IC50: > 69.5 µM (inactive)
[16]
  IC50: > 69.5 µM (inactive)

## O=C(CCN1CCC(c2ccccc2)C1)c1ccc2c(c1)OCCO2 (configuration not stated) [PROROXAN HYDROCHLORIDE]
[23]
  EC50: 36.3 µM (active)
[24]
  EC50: 34.3 µM (active)
[25]
  AC50: 76.8 µM (active)
[8]
  IC50: > 29.9 µM (inactive)
[9]
  EC50: 0.21 µM (active)
[10]
  IC50: 1.46 µM (active)
[11]
  EC50: > 29.9 µM (inactive)
